Measurements as given in PubChem BioAssay (NCI).
Values joined by “and” are separate entries in the source; they are usually repeats but may differ in a detail not shown here. Equal values may be shown once.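 Growth conditions: 96-well plates. Treatment: test compound, 48 hours, 5 concentrations. Analysis: linear interpolation between bracketing concentrations; unreached endpoints set to highest concentration. Abbreviation: GI50, concentration required for 50% inhibition of growth. TGI denotes the concentration required for complete inhibition of growth.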 Active and inactive are the calls of the source. Cut-off read from the data, not from the text of the source: active = GI50 below about 0.43 µM; inactive = the rest.

Assays:
Assay in all cases: growth of human tumour cells (NCI), 48 h
KM20L2 colon = tested on: KM20L2 colon
LXFL 529 NSCLC = tested on: LXFL 529 NSCLC
M19-MEL melanoma = tested on: M19-MEL melanoma
SNB-78 CNS = tested on: SNB-78 CNS
DLD-1 colon = tested on: DLD-1 colon
BT-549 breast = tested on: BT-549 breast
HS 578T breast = tested on: HS 578T breast
MDA-N = tested on: MDA-N
NCI/ADR-RES ovarian = tested on: NCI/ADR-RES ovarian
RXF-631 renal = tested on: RXF-631 renal

With `CC(C)N(C(=O)C12C3C4C1C1C2C3C41C(O)C(C)(C)C)C(C)C` (stereo not given) the TGI (KM20L2 colon) was over 50 µM, the TGI (LXFL 529 NSCLC) was over 50 µM and the TGI (M19-MEL melanoma) was over 50 µM. For the same molecule, the TGI (SNB-78 CNS) was over 50 µM.
Molecule `CC[O-].CC[O-].O=C1C(=C([O-])c2ccccc2)C(=O)c2ccccc21.O=C1C(=C([O-])c2ccccc2)C(=O)c2ccccc21.[Ti+4]` has a GI50 (DLD-1 colon) of 93.2 µM, a TGI (DLD-1 colon) of over 100 µM and a GI50 (KM20L2 colon) of over 100 µM. For the same molecule, the TGI (KM20L2 colon) was over 100 µM, the GI50 (SNB-78 CNS) was over 100 µM and the TGI (SNB-78 CNS) was over 100 µM.
`CCc1nc(N)nc(N)c1-c1ccc([N+](=O)[O-])c(NCc2ccccc2)c1` was tested, and the TGI (BT-549 breast) was 47.1 µM, the TGI (HS 578T breast) was 51.4 µM and the TGI (MDA-N) was 34.8 µM. It also gave a TGI (NCI/ADR-RES ovarian) of 38.2 µM.
For `COc1ccc([C@H]2CC(=O)N3CCCC3N2)cc1` (stereo not given in full), the TGI (DLD-1 colon) was over 100 µM, the TGI (KM20L2 colon) was over 100 µM and the TGI (LXFL 529 NSCLC) was over 100 µM. For the same molecule, the TGI (M19-MEL melanoma) was over 100 µM and the TGI (SNB-78 CNS) was over 100 µM.
Work on `CC(=O)N(CCN)CCN` yielded a TGI (DLD-1 colon) of over 100 µM, a TGI (KM20L2 colon) of over 10 µM and a TGI (LXFL 529 NSCLC) of over 10 µM. For the same molecule, the TGI (M19-MEL melanoma) was over 10 µM, the TGI (RXF-631 renal) was over 10 µM and the TGI (SNB-78 CNS) was over 10 µM.
Molecule `C=C(C)C1CC2C(C)=C(OC(C)=O)C1n1c(=O)c3cc4ccccc4cc3c(=O)n12` (stereo not given) has a TGI (DLD-1 colon) of over 100 µM, a TGI (KM20L2 colon) of over 100 µM and a TGI (LXFL 529 NSCLC) of over 100 µM. For the same molecule, the TGI (M19-MEL melanoma) was over 100 µM and the TGI (SNB-78 CNS) was over 100 µM.
With `CSc1ccc(/C=C2\CNC/C(=C\c3ccc(SC)cc3)C2=O)cc1` the TGI (BT-549 breast) was over 371 µM, the GI50 (DLD-1 colon) was 45.1 µM and 142 µg/mL and the TGI (DLD-1 colon) was > 371 µM and 150 µg/mL. For the same molecule, the TGI (HS 578T breast) was over 371 µM, the outcome (KM20L2 colon) was “inactive” and the TGI (LXFL 529 NSCLC) was 68.6 µM. It also gave a GI50 (NCI/ADR-RES ovarian) of 150 µg/mL, a TGI (NCI/ADR-RES ovarian) of 150 µg/mL and a TGI (RXF-631 renal) of 175 µM. The GI50 (SNB-78 CNS) was 28.8 µg/mL and the TGI (SNB-78 CNS) was 150 µg/mL.
`O=C(CC(C(=O)c1cccs1)c1ccc2c(c1)OCO2)c1ccc(Br)cc1` (stereo not given) showed a TGI (MDA-N) of over 100 µM and a TGI (NCI/ADR-RES ovarian) of over 100 µM.
`Nc1c(C(=O)Nc2ccc([As](=O)(O)O)cc2)cnc2nnnn12` was tested, and the TGI (BT-549 breast) was over 100 µM, the TGI (MDA-N) was over 100 µM and the TGI (NCI/ADR-RES ovarian) was over 100 µM.
For `COc1cc(C2c3cc4c(cc3[C@@H](Nc3ccc(N(C)C)cc3)[C@H]3COC(=O)C23)OCO4)cc(OC)c1O` (stereo not given in full), the GI50 (DLD-1 colon) was 2.19 µM, the TGI (DLD-1 colon) was 9.22 µM and 12.4 µM and the GI50 (KM20L2 colon) was 2.41 µM. The TGI (KM20L2 colon) was 3.02 µM and 10.7 µM, the GI50 (LXFL 529 NSCLC) was 6.16 µM and the TGI (LXFL 529 NSCLC) was 11.1 µM and 20.6 µM. The GI50 (M19-MEL melanoma) was 2.53 µM, the TGI (M19-MEL melanoma) was 12.3 µM and 16.5 µM and the GI50 (SNB-78 CNS) was 8.2 µM. For the same molecule, the TGI (SNB-78 CNS) was 22.2 µM and 37.6 µM.
With `CC12CC3(C)CC(C)(C1)CC(N=[N+]=[N-])(C2)C3` the TGI (DLD-1 colon) was over 100 µM, the TGI (LXFL 529 NSCLC) was over 100 µM and the TGI (M19-MEL melanoma) was over 100 µM. For the same molecule, the TGI (RXF-631 renal) was over 100 µM and the TGI (SNB-78 CNS) was over 100 µM.
For `CC(O)CNC1=CC(=O)C(=O)c2ccccc21` (stereo not given), the TGI (HS 578T breast) was 61.8 µM and the TGI (MDA-N) was 34.5 µM.
For `Cc1cc(O)c2c(c1)C(O)(c1ccc3c(c1O)C(=O)c1c(O)cc(C)cc1C3(O)C1OC(CO)C(O)C(O)C1O)c1cccc(O)c1C2=O` (stereo not given), the TGI (DLD-1 colon) was 23.7 µM, the TGI (KM20L2 colon) was 36 µM and the TGI (LXFL 529 NSCLC) was 24.5 µM. It also gave a TGI (M19-MEL melanoma) of 24.8 µM, a TGI (RXF-631 renal) of 29.5 µM and a TGI (SNB-78 CNS) of 36.1 µM.
Work on `Cc1cc(Cl)ccc1NC(=O)C(=O)Cc1nc2ccc(C(=O)c3ccccc3)cc2[nH]c1=O` yielded a TGI (DLD-1 colon) of over 100 µM, a TGI (KM20L2 colon) of over 100 µM and a TGI (LXFL 529 NSCLC) of over 100 µM. The TGI (M19-MEL melanoma) was over 100 µM.
`C/C(=N/N(C=O)C[n+]1ccccc1)C(CN(CC(C)C)CC(C)C)C(=O)Nc1ccc(C)cc1C` (stereo not given) showed a TGI (DLD-1 colon) of over 100 µM, a TGI (KM20L2 colon) of over 100 µM and a TGI (RXF-631 renal) of over 100 µM.
With `O=C(c1ccccc1)c1c(CC(O)c2cccnc2)n(C(=O)c2ccccc2)c2ccccc12` (stereo not given) the TGI (KM20L2 colon) was 42 µM and the TGI (M19-MEL melanoma) was 38.3 µM.
Work on `Clc1ccccc1NN(Cc1ccccn1)c1ccccc1Cl` yielded a TGI (BT-549 breast) of 56 µM, a TGI (HS 578T breast) of 63.9 µM and a TGI (MDA-N) of 36 µM. For the same molecule, the TGI (NCI/ADR-RES ovarian) was 47.7 µM.
`Cc1cc(C)c2c(c1)CN1CN2Cc2cc(C)cc(C)c21` was tested, and the TGI (DLD-1 colon) was 58.3 µM, the TGI (LXFL 529 NSCLC) was over 100 µM and the TGI (M19-MEL melanoma) was 53.4 µM. It also gave a TGI (SNB-78 CNS) of 40.2 µM.
`O=c1oc2ccccc2c(O)c1C=NC(=S)c1ccncc1` was tested, and the TGI (BT-549 breast) was 94 µM, the TGI (MDA-N) was over 100 µM and the TGI (NCI/ADR-RES ovarian) was over 100 µM.
`N=C(N)SCc1cn2ccccc2n1` was tested, and the TGI (DLD-1 colon) was over 100 µM, the TGI (M19-MEL melanoma) was over 100 µM and the TGI (SNB-78 CNS) was over 100 µM.
For `COc1cc(-c2oc3ccccc3c(=O)c2O)cc(OC)c1OC`, the TGI (BT-549 breast) was over 100 µM, the TGI (HS 578T breast) was 98.9 µM and the TGI (MDA-N) was over 100 µM. The TGI (NCI/ADR-RES ovarian) was over 100 µM.
Work on `O=C(CCc1nc(=S)[nH][nH]1)NC12CC3CC(CC(C3)C1)C2` yielded a TGI (DLD-1 colon) of over 100 µM, a TGI (KM20L2 colon) of over 100 µM and a TGI (LXFL 529 NSCLC) of over 100 µM. The TGI (M19-MEL melanoma) was over 100 µM, the TGI (RXF-631 renal) was over 100 µM and the TGI (SNB-78 CNS) was over 100 µM.
Molecule `Cc1nc2c(n1CC(C)(C)C)C(=O)c1ccccc1C2=O` has a TGI (DLD-1 colon) of over 100 µM, a TGI (KM20L2 colon) of over 100 µM and a TGI (LXFL 529 NSCLC) of over 100 µM. The TGI (SNB-78 CNS) was over 100 µM.
Molecule `COC(=O)C1=CCON(c2ccccc2)C1c1ccccc1` (stereo not given) has a TGI (DLD-1 colon) of over 100 µM, a TGI (KM20L2 colon) of over 100 µM and a TGI (LXFL 529 NSCLC) of over 100 µM. For the same molecule, the TGI (M19-MEL melanoma) was over 100 µM.
In the case of `O=c1nc(-c2ccccc2)c2c3c(cccn13)CCC2`, the TGI (DLD-1 colon) is reported as over 100 µM, the TGI (LXFL 529 NSCLC) is reported as over 100 µM and the TGI (M19-MEL melanoma) is reported as over 100 µM. It also gave a TGI (SNB-78 CNS) of over 100 µM.
With `Fc1cccc(Cl)c1C1SCc2nc3ccccc3n21` (stereo not given) the TGI (DLD-1 colon) was over 100 µM, the TGI (KM20L2 colon) was 49.7 µM and the TGI (LXFL 529 NSCLC) was over 100 µM. The TGI (M19-MEL melanoma) was 89 µM, the TGI (RXF-631 renal) was over 100 µM and the TGI (SNB-78 CNS) was 73.8 µM.
Work on `O=C1[C@@H](c2ccc(Cl)cc2)[C@H]2CC=C[C@H]2N1O` yielded a TGI (DLD-1 colon) of over 100 µM, a TGI (LXFL 529 NSCLC) of over 100 µM and a TGI (M19-MEL melanoma) of over 100 µM. For the same molecule, the TGI (RXF-631 renal) was over 100 µM and the TGI (SNB-78 CNS) was over 100 µM.
Work on `O=C1c2ccccc2N2OC3(N4CCCC4)CCCC3C12c1ccccc1` (stereo not given) yielded a TGI (DLD-1 colon) of over 100 µM, a TGI (KM20L2 colon) of over 100 µM and a TGI (LXFL 529 NSCLC) of over 100 µM. The TGI (M19-MEL melanoma) was over 100 µM and the TGI (SNB-78 CNS) was over 100 µM.
Work on `CC(C)c1cccc(C(C)C)c1NC(=O)C(=O)C(C(=O)c1ccccc1-c1ccccc1)C1OC(=O)c2ccccc21` (stereo not given) yielded a TGI (KM20L2 colon) of 50.8 µM, a TGI (LXFL 529 NSCLC) of 34.6 µM and a TGI (M19-MEL melanoma) of 63.6 µM. For the same molecule, the TGI (SNB-78 CNS) was 73.2 µM.
Molecule `Cc1cc2c(cc1C)NC1=C(N2)OC(c2c[nH]c3ccc(COc4ccccc4)cc23)C1=O` (stereo not given) has a TGI (BT-549 breast) of over 100 µM, a TGI (HS 578T breast) of over 100 µM and a TGI (MDA-N) of over 100 µM. For the same molecule, the TGI (NCI/ADR-RES ovarian) was over 100 µM.
For `Clc1ccc(COC(Cn2ccnc2)c2ccc(Cl)cc2Cl)cc1` (stereo not given), the GI50 (BT-549 breast) was 2.48 µM, the TGI (BT-549 breast) was 6.63 µM and 35.3 µM and 30.4 µM and the GI50 (HS 578T breast) was 3.72 µM. The TGI (HS 578T breast) was 22.9 µM and 38.8 µM and 40.5 µM, the TGI (MDA-N) was 27.4 µM and 25.4 µM and the GI50 (NCI/ADR-RES ovarian) was 0.787 µM. For the same molecule, the TGI (NCI/ADR-RES ovarian) was 7.56 µM and 23.3 µM and 24.9 µM.
`COC(=O)c1nc(NN)[nH]c(=O)c1CCCCCc1c(C(=O)OC)[nH]c(NN)cc1=O` was tested, and the TGI (DLD-1 colon) was over 100 µM, the TGI (KM20L2 colon) was over 100 µM and the TGI (LXFL 529 NSCLC) was over 100 µM. For the same molecule, the TGI (M19-MEL melanoma) was over 100 µM and the TGI (SNB-78 CNS) was over 100 µM.
